The text below walks through data of US9394299B2, “Rilyazine derivatives and compositions for the treatment of cancer” (Warner Babcock Institute for Green Chemistry, LLC, priority 2013, dated 2016).

Entries after “also recorded” stand apart in the source; their conditions may differ. Read-outs that look alike come from different tables or passages of the source. Bounds are passed on as bounds.

This assay deals with 60 cell lines (human tumor cell lines of the cancer screening panel). Description: NCI 60 cell line screening, single point dosing at 10 μM (SRB). It is filed as cell-based. Particulars: for GI50: Homo sapiens, read-out: GI50 (NCI Results, single point, 10 μM); for Delta of Growth Percent across all cell lines / Mean Growth Percent across all cell lines: single dose 10^−5 M. How it is done: The screening is a two-stage process, beginning with the evaluation of all compounds against 60 cell lines at a single dose of 10^−5 M.
The human tumor cell lines of the cancer screening panel are grown in RPMI 1640 medium containing 5% fetal bovine serum and 2 mM L-glutamine. Cells are inoculated into 96 well microtiter plates in 100 μL at plating densities ranging from 5,000 to 40,000 cells/well depending on the doubling time of individual cell lines. After cell inoculation, the microtiter plates are incubated at 37° C., 5% CO2, 95% air and 100% relative humidity for 24 h prior to addition of experimental drugs.
After 24 h, two plates of each cell line are fixed in situ with TCA, to represent a measurement of the cell population for each cell line at the time of drug addition Time Zero (Tz). Experimental drugs are solubilized in dimethyl sulfoxide:glycerol 9:1 at 400-fold the desired final maximum test concentration and stored frozen at −70° C. prior to use. At the time of drug addition, an aliquot of frozen concentrate is thawed and diluted to twice the desired final maximum test concentration with complete medium containing 50 μg/ml gentamicin. Additional four, 10-fold or ½ log serial dilutions are made to provide a total of five drug concentrations plus control. Aliquots of 100 μl of these different drug dilutions are added to the appropriate microtiter wells already containing 100 μl of medium, resulting in the required final drug concentrations.
Positive control is prepared by adding the known anti-tumor agent adriamycin, NSC 123127, prepared and stored the same as the compounds for testing.
Following drug addition, the plates are incubated for an additional 48 h at 37° C., 5% CO2, 95% air, and 100% relative humidity. For adherent cells, the assay is terminated by the addition of cold TCA. Cells are fixed in situ by the gentle addition of 50 μl of cold 50% (w/v) TCA (final concentration, 10% TCA) and incubated for 60 minutes at 4° C. The supernatant is discarded, and the plates are washed five times with tap water and air dried. Sulforhodamine B (SRB) solution (100 μl) at 0.4% (w/v) in 1% acetic acid is added to each well, and plates are incubated for 10 minutes at room temperature. After staining, unbound dye is removed by washing five times with 1% acetic acid and the plates are air dried. Bound stain is subsequently solubilized with 10 mM trizma base, and the absorbance is read on an automated plate reader at a wavelength of 515 nm. For suspension cells, the methodology is the same except that the assay is terminated by fixing settled cells at the bottom of the wells by gently adding 50 μl of 80% TCA (final concentration, 16% TCA).
For the 1-dose 60 cell testing, the Growth Percent is calculated for each cell line/drug combination from the absorbance measurement for the no-drug control (C), the absorbance at time zero (Tz) and the absorbance measurement after incubation of the cells in the presence of drug (Ti): Growth Percent=[(Ti−Tz)/(C−Tz)]×100 for cell line/drug combinations for which Ti≧Tz. Growth Percent=[(Ti−Tz)/Tz]×100 for cell line/drug combinations for which Ti<Tz.
Calculation of the Growth Percent by these equations allows detection of both growth inhibition (Growth Percent values between 0 and 100) and lethality (Growth Percent values less than 0). For example, a Growth Percent value of 100 means no growth inhibition. A Growth Percent value of 40 would mean 60% growth inhibition. A Growth Percent value of 0 means no net growth over the course of the experiment, or “cytostatic”, no change by growth or cell death. A Growth Percent value of −40 would mean 40% lethality. A Growth Percent value of −100 means all cells are dead.
For 1-dose 60 cell testing, the Mean Growth Percent, Delta and Range across all 60 cell lines are also calculated. The Deviation of each cell line/drug combination from the Mean is also calculated and plotted: Deviation=Mean Growth Percent−Growth Percent […]

The mark [1] stands for this setting: single point 10 μM, 60 cell lines.

Turning to `O=c1c2cccnc2c(-c2ccccn2)nn1C1CCCCC1` [RL-1, 6-cyclohexyl-8-(pyridin-2-yl)pyrido[2,3-d]pyridazin-5(6H)-one], for the setting “60 cell”, the GI50 was greater than 10 µM. Further, where the note is “60 cell lines”, the “Delta of Growth Percent across all cell lines” value is listed as 11.75 and the “Mean Growth Percent across all cell lines” value was determined as 104.31%. The “anti-proliferative effect / growth inhibition (in words)” value under setting [1] is recorded as “little to no effect on cell growth; also recorded: little to no appreciable anti-proliferative effects”.

Turning to `O=c1c2ncccc2c(-c2ccccn2)nn1C1CCCCC1` [RL-3, 7-Cyclohexyl-5-(pyridin-2-yl)pyrido[2,3-d]pyridazin-8(7H)-one], the 50% growth inhibitory concentration (GI50) (60 cell) was greater than 10 µM. For the same molecule, for the setting “60 cell lines”, the “Delta of Growth Percent across all cell lines” value amounted to 24.63 and the “Mean Growth Percent across all cell lines” value is on record as 101.11%. Under setting [1], the “anti-proliferative effect / growth inhibition (in words)” value is listed as “little to no effect on cell growth; also recorded: little to no appreciable anti-proliferative effects”.

Turning to `S=c1c2cccnc2c(-c2ccccn2)nn1C1CCCCC1` [RL-2, 6-cyclohexyl-8-(pyridin-2-yl)pyrido[2,3-d]pyridazine-5(6H)-thione], under setting [1], the concentration for 50% growth inhibition (GI50) was greater than 10 µM and the “anti-proliferative effect / growth inhibition (in words)” value was “little to no effect on cell growth; also recorded: little to no appreciable anti-proliferative effects”. Besides, under “60 cell lines”, the “Delta of Growth Percent across all cell lines” value was 30.65 and the “Mean Growth Percent across all cell lines” value worked out at 99.96%.

The term GI50 denotes the concentration giving 50% growth inhibition.
